Consider 35 molecules from ChEMBL document CHEMBL4616581, “Current scenario of artemisinin and its analogues for antimalarial activity” (Eur J Med Chem, 2019).

Values after ≈ are worked out from the molar mass of the structure shown.

As a reminder, the IC50 is the concentration that gives 50% inhibition.

What all share (type): functional, organism-based
For test [1], the system named is Plasmodium falciparum. The test can be described thus: Antimalarial activity against Plasmodium falciparum K1.
Test [2] has as its system Plasmodium falciparum. Put plainly: Antimalarial activity against Plasmodium falciparum HB3.
Test [3] concerns Plasmodium falciparum. The test can be described thus: Antimalarial activity against Plasmodium falciparum D6.
Test [4] deals with Plasmodium falciparum. The test can be described thus: Antimalarial activity against Plasmodium falciparum W2.
The subject of test [5] is Plasmodium falciparum. Put plainly: Antimalarial activity against Plasmodium falciparum W2 after 24 hrs by in presence of [3H]hypoxanthine.
In test [6] the test system is Plasmodium falciparum. Put plainly: Antimalarial activity against Plasmodium falciparum D6 after 24 hrs by in presence of [3H]hypoxanthine.
Test [7] concerns Plasmodium falciparum. The test can be described thus: Antimalarial activity against Plasmodium falciparum NF54 after 48 hrs by spectrophotometric analysis. The note with it: NF54, 48 h.

`C[C@H]1[C@@H](OCc2ccc(CN3CCCCC3)cc2)O[C@@H]2O[C@]3(C)CC[C@H]4[C@H](C)CC[C@@H]1[C@@]24OO3`: the IC50 with Plasmodium falciparum [1] amounted to 9.8 nM; in the test on Plasmodium falciparum [2], 12.2 nM.
Regarding `C[C@H]1[C@@H](CCO)O[C@@H]2O[C@]3(C)CC[C@H]4[C@H](C)CC[C@@H]1[C@@]24OO3`, the 50% inhibitory concentration (IC50) came to 0.34 ng/mL (≈ 1.09 nM) with Plasmodium falciparum [3] and 0.18 ng/mL with Plasmodium falciparum [4].
Turning to `COC(=O)CC[C@@H](OC1O[C@@H]2O[C@]3(C)CC[C@H]4[C@H](C)CC[C@@H]([C@H]1C)[C@@]24OO3)c1ccc(F)cc1` (some centres not stated), the figures for the IC50 with Plasmodium falciparum [3] and in the test on Plasmodium falciparum [4] were 0.43 ng/mL (≈ 0.9 nM) and 0.398 ng/mL, respectively.
In the same order, the values of `CCC[C@H]1O[C@@H]2O[C@]3(C)CC[C@H]4[C@H](C)CC[C@@H]([C@H]1C)[C@@]24OO3` are 0.41 ng/mL (≈ 1.32 nM) and 0.16 ng/mL.
As to `COC(=O)C[C@@H](C)O[C@H]1O[C@@H]2O[C@]3(C)CC[C@H]4[C@H](C)CC[C@@H]([C@H]1C)[C@@]24OO3`, the IC50 is 0.071 ng/mL in the test on Plasmodium falciparum [5] and 0.00044 µg/mL with Plasmodium falciparum [6].
For `C[C@@H]1CC[C@H]2[C@](C)(Br)[C@@H](Nc3cccc(F)c3)O[C@@H]3O[C@]4(C)CC[C@@H]1[C@]32OO4`, the IC50 in the test on Plasmodium falciparum [3] was 0.16 ng/mL (≈ 0.351 nM); in the test on Plasmodium falciparum [4], under 0.16 ng/mL.
`C[C@@H]1CC[C@H]2[C@](C)(Br)[C@@H](Nc3ccccn3)O[C@@H]3O[C@]4(C)CC[C@@H]1[C@]32OO4`: the IC50 was 7.72 ng/mL (≈ 17.6 nM) with Plasmodium falciparum [3] and 1.19 ng/mL in the test on Plasmodium falciparum [4].
As for `CCNCCO[C@H]1O[C@@H]2O[C@]3(C)CC[C@H]4[C@H](C)CC[C@@H]([C@H]1C)[C@@]24OO3`, the IC50 in the test with Plasmodium falciparum [1] and in the test with Plasmodium falciparum [2] was 4.1 nM each time.
Turning to `C[C@H]1[C@@H](OC2O[C@H](CO)[C@H](O)[C@H](O)[C@H]2O)O[C@@H]2O[C@]3(C)CC[C@H]4[C@H](C)CC[C@@H]1[C@@]24OO3` (some centres not stated), the IC50 with Plasmodium falciparum [5] turned out to be 35.6 ng/mL; in the test on Plasmodium falciparum [6], 0.0131 µg/mL.
In the same order, the values of `COC(=O)[C@H](C)CO[C@H]1O[C@@H]2O[C@]3(C)CC[C@H]4[C@H](C)CC[C@@H]([C@H]1C)[C@@]24OO3` are 0.057 ng/mL and 0.00215 µg/mL.
As for `COc1ccc(OC)c(COC2O[C@@H]3O[C@]4(C)CC[C@H]5[C@H](C)CC[C@H]([C@@]35OO4)[C@@]2(C)O)c1` (some centres not stated), it took 125 nM to reach half-maximal inhibition in the test with Plasmodium falciparum [7] (IC50).
`C[C@@H]1CC[C@H]2[C@@H](C)C(OC(=O)c3cccc4c3OCO4)O[C@@H]3O[C@]4(C)CC[C@@H]1[C@]32OO4` (some centres not stated) showed an IC50 in the test with Plasmodium falciparum [7] of 8.08 nM.
Turning to `COC(=O)CC[C@@H](OC1O[C@@H]2O[C@]3(C)CC[C@H]4[C@H](C)CC[C@@H]([C@H]1C)[C@@]24OO3)c1ccc(Cl)cc1` (some centres not stated), the results for the IC50 with Plasmodium falciparum [3] and in the test on Plasmodium falciparum [4] were 0.727 ng/mL (≈ 1.47 nM) and 0.629 ng/mL, respectively.
As for `COC(=O)C[C@H](C)O[C@H]1O[C@@H]2O[C@]3(C)CC[C@H]4[C@H](C)CC[C@@H]([C@H]1C)[C@@]24OO3`, the IC50 with Plasmodium falciparum [5] came out at 0.48 ng/mL; in the test with Plasmodium falciparum [6], 0.00119 µg/mL.
For the molecule `C[C@@H]1CC[C@H]2[C@](C)(Br)[C@@H](Nc3ccccc3)O[C@@H]3O[C@]4(C)CC[C@@H]1[C@]32OO4`, the values for the IC50 in the test on Plasmodium falciparum [3] and in the test with Plasmodium falciparum [4] were 3.42 ng/mL (≈ 7.8 nM) and 0.63 ng/mL, respectively.
With `C[C@H]1[C@@H](OC[C@@H](C)C(=O)O)O[C@@H]2O[C@]3(C)CC[C@H]4[C@H](C)CC[C@@H]1[C@@]24OO3`, the results for the IC50 in the test with Plasmodium falciparum [5] and with Plasmodium falciparum [6] were 5.34 ng/mL and 0.0222 µg/mL, respectively.
Molecule `C[C@@H]1CC[C@@H]2[C@]34OO[C@@](C)(CC[C@@H]13)O[C@H]4OC(OCc1ccc3c(c1)OCO3)[C@]2(C)O` (some centres not stated) had an IC50 in the test with Plasmodium falciparum [7] of 110 nM.
`C[C@@H]1CC[C@H]2[C@](C)(Br)[C@@H](Nc3ncccn3)O[C@@H]3O[C@]4(C)CC[C@@H]1[C@]32OO4`: the IC50 in the test with Plasmodium falciparum [3] was 26 ng/mL (≈ 59 nM); in the test with Plasmodium falciparum [4], 5.56 ng/mL.
In the test on Plasmodium falciparum [7], `C[C@@H]1CC[C@H]2[C@@H](C)C(OC(=O)c3cccc([N+](=O)[O-])c3)O[C@@H]3O[C@]4(C)CC[C@@H]1[C@]32OO4` (some centres not stated) gave an IC50 of 10.6 nM.
As for `COC(=O)CC[C@H](OC1O[C@@H]2O[C@]3(C)CC[C@H]4[C@H](C)CC[C@@H]([C@H]1C)[C@@]24OO3)c1ccc(Cl)cc1` (some centres not stated), the values for the IC50 in the test with Plasmodium falciparum [3] and in the test with Plasmodium falciparum [4] were 0.903 ng/mL (≈ 1.82 nM) and 0.794 ng/mL, respectively.
As to `COC(=O)[C@@H](C)CO[C@H]1O[C@@H]2O[C@]3(C)CC[C@H]4[C@H](C)CC[C@@H]([C@H]1C)[C@@]24OO3`, the figures for the IC50 with Plasmodium falciparum [5] and with Plasmodium falciparum [6] were 0.015 ng/mL and 0.00036 µg/mL, respectively.
In the same order, the values of `C[C@H]1[C@@H](OC2O[C@H](CO)[C@@H](O)[C@H](O)[C@H]2O)O[C@@H]2O[C@]3(C)CC[C@H]4[C@H](C)CC[C@@H]1[C@@]24OO3` (some centres not stated) are 34.1 ng/mL and 0.121 µg/mL.
In the same order, the values of `C[C@H]1[C@@H](OC[C@H](C)C(=O)O)O[C@@H]2O[C@]3(C)CC[C@H]4[C@H](C)CC[C@@H]1[C@@]24OO3` are 8.33 ng/mL and 0.0287 µg/mL.
Molecule `C[C@H]1[C@@H](C(F)(F)F)O[C@@H]2O[C@]3(C)CC[C@H]4[C@H](C)CC[C@@H]1[C@@]24OO3` had an IC50 in the test with Plasmodium falciparum [4] of 6.2 nM.
`COC(=O)CC[C@H](OC1O[C@@H]2O[C@]3(C)CC[C@H]4[C@H](C)CC[C@@H]([C@H]1C)[C@@]24OO3)c1ccc(F)cc1` (some centres not stated): the IC50 in the test on Plasmodium falciparum [3] stood at 0.616 ng/mL (≈ 1.29 nM); with Plasmodium falciparum [4] it was 0.488 ng/mL.
Turning to `C[C@H]1[C@@H](O[C@H](C)CC(=O)O)O[C@@H]2O[C@]3(C)CC[C@H]4[C@H](C)CC[C@@H]1[C@@]24OO3`, the half-maximal inhibitory concentration (IC50) in the test with Plasmodium falciparum [5] amounted to 4.42 ng/mL; with Plasmodium falciparum [6] it was 0.0365 µg/mL.
`CC[C@H]1O[C@@H]2O[C@]3(C)CC[C@H]4[C@H](C)CC[C@@H]([C@H]1C)[C@@]24OO3`: the IC50 came out at 1.09 ng/mL (≈ 3.68 nM) with Plasmodium falciparum [3] and 0.29 ng/mL in the test with Plasmodium falciparum [4].
In the case of `C[C@@H]1CC[C@@H]2[C@]34OO[C@@](C)(CC[C@@H]13)O[C@H]4OC(O/C=C/c1ccccc1)[C@]2(C)O` (some centres not stated), in the test with Plasmodium falciparum [7], half-maximal inhibition (IC50) required 106 nM.
For `C[C@H]1[C@@H](O[C@@H](C)CC(=O)O)O[C@@H]2O[C@]3(C)CC[C@H]4[C@H](C)CC[C@@H]1[C@@]24OO3`, the half-inhibitory concentration (IC50) with Plasmodium falciparum [5] is 7.43 ng/mL; in the test with Plasmodium falciparum [6], 0.015 µg/mL.
On to `C[C@@H]1CC[C@H]2[C@@H](C)C(CCCO)O[C@@H]3O[C@]4(C)CC[C@@H]1[C@]32OO4` (some centres not stated), for which the figures for the IC50 in the test on Plasmodium falciparum [3] and in the test on Plasmodium falciparum [4] were 0.23 ng/mL (≈ 0.705 nM) and 0.23 ng/mL, respectively.
In the case of `COC(=O)CCC(OC1O[C@@H]2O[C@]3(C)CC[C@H]4[C@H](C)CC[C@@H]([C@H]1C)[C@@]24OO3)c1ccc(Cl)cc1` (some centres not stated), the values for the IC50 in the test with Plasmodium falciparum [3] and in the test on Plasmodium falciparum [4] were 0.391 ng/mL (≈ 0.79 nM) and 0.656 ng/mL, respectively.
Consider `C[C@@H]1CC[C@@H]2[C@]34OO[C@@](C)(CC[C@@H]13)O[C@H]4OC(OCC1CC1)[C@]2(C)O` (some centres not stated), for which the IC50 in the test on Plasmodium falciparum [7] amounted to 158 nM.
As to `C[C@@H]1CC[C@H]2[C@](C)(Br)[C@@H](Nc3nccs3)O[C@@H]3O[C@]4(C)CC[C@@H]1[C@]32OO4`, the values for the IC50 with Plasmodium falciparum [3] and with Plasmodium falciparum [4] were 0.91 ng/mL (≈ 2.04 nM) and 0.21 ng/mL, respectively.
`C[C@@H]1CC[C@H]2[C@@H](C)C(OC(=O)c3ccc([N+](=O)[O-])cc3)O[C@@H]3O[C@]4(C)CC[C@@H]1[C@]32OO4` (some centres not stated) had an IC50 in the test with Plasmodium falciparum [7] of 8.54 nM.
As to `C[C@H]1[C@@H](O[C@@H]2O[C@H](CO)[C@@H](O[C@@H]3O[C@H](CO)[C@@H](O)[C@H](O)[C@H]3O)[C@H](O)[C@H]2O)O[C@@H]2O[C@]3(C)CC[C@H]4[C@H](C)CC[C@@H]1[C@@]24OO3`, the IC50 with Plasmodium falciparum [5] stood at 171 ng/mL; in the test on Plasmodium falciparum [6] it was 0.71 µg/mL.
